Data on nine compounds can be found in US4650785A, “Pharmaceutical composition having an excellent absorption property” (Ajinomoto Company Incoporated, priority 1982, dated 1987).

Series [1] is described as follows: Usefulness as medicine absorption promoter (statement, test not described).
A further series concerns Female ICR-CD-1 mice. The series can be described thus: Oral administration of absorption promoter mixed with insulin to mice: decrease in blood glucose and elevation of blood insulin versus control. The arrangement: Degree of Elevation of Blood Insulin: unit not given here. The conditions noted are these: oral, mice, vs control group. The class given is in vivo. As to the method:
The absorption promoter samples listed in Table 2 were dissolved or suspended in 0.5% CMC-0.05M tris-HCl buffers (pH: 7.8) and the solutions or suspensions were mixed with aqueous insulin solution. Female ICR-CD-1 mice 5 to 7 weeks old were orally administered predetermined amounts of the mixtures. A predetermined duration later, the percent decrease in blood glucose and the degree of elevation of blood insulin as compared with the control group were measured. The symbol "Z" in the structural formulas in the table represents a benzyloxycarbonyl group. The upper figures in the columns "effectiveness" represent the percent decrease in blood glucose and the lower parenthesized figures indicate the degree of elevation in blood insulin.

The next series deals with Female CD-1(ICR) Mice. The series can be described thus: Toxicity studies of phenylalanine derivatives (LD50). The class given is in vivo. An excerpt:
Toxicity Studies of Phenylalanine Derivatives with Oral IN Potentiating Activity in Female CD-1(ICR) Mice are as follows:
Phenylalanine derivatives were suspended in 0.5% CMC.

The mark [2] stands for this setting: sample 6.0 mg/10 g with insulin 2.5 U/10 g body weight, 30 minutes.
The mark [3] stands for this setting: sample 6.0 mg/10 g with insulin 2.5 U/10 g body weight, 60 minutes.
[4] abbreviates: female CD-1(ICR) mice, suspended in 0.5% CMC.
Setting [5] is: sample 1.5 mg/10 g with insulin 2.5 U/10 g body weight, 30 minutes.
Setting [6] is: sample 1.5 mg/10 g with insulin 2.5 U/10 g body weight, 60 minutes.
[7] abbreviates: sample 3.0 mg/10 g with insulin 2.5 U/10 g body weight, 30 minutes.
[8] abbreviates: sample 3.0 mg/10 g with insulin 2.5 U/10 g body weight, 60 minutes.

Where a SMILES comes first, the peptide text is derived from it. The star is where a group is joined. Cbz = O=C(OCc1ccccc1)* Bounds are passed on as bounds.

What is called LD50 is the dose expected to kill half of the subjects tested.

For the compound `CC(=O)N[C@@H](Cc1ccccc1)C(=O)O` [N-acetylphenylalanine], in series [1], the “usefulness as the absorption promoter” value was “not useful as the absorption promoter”.

As for `N[C@@H](Cc1ccccc1)C(=O)O` [Phenylalanine], the “usefulness as the absorption promoter” value in series [1] is on record as “not useful as the absorption promoter”.

On to `O=C(N[C@@H](Cc1ccccc1)C(=O)N[C@@H](Cc1ccc(O)cc1)C(=O)O)OCc1ccccc1` [Sample S-10, N-benzyloxycarbonyl-L-phenylalanyl-L-tyrosine] (Cbz-Phe-Tyr-OH), for which, in the series on Female ICR-CD-1 mice (setting [2]), the “Decrease in Blood Glucose (%)” value is listed as 61.5% and the “Degree of Elevation of Blood Insulin” value is reported as 41.9. For the same compound, in the series with Female ICR-CD-1 mice (setting [3]), the “Decrease in Blood Glucose (%)” value is listed as 43.4% and the “Degree of Elevation of Blood Insulin” value is 4.85. Further, in the series on Female CD-1(ICR) Mice (setting [4]), the “LD50 (mg/kg)” value was > 3,000 mg/kg.

Turning to `O=C(COc1cccc2ccccc12)N[C@@H](Cc1ccccc1)C(=O)O` [Sample S-11, N-[(1-naphthoxy)acetyl]-L-phenylalanine], in the series with Female ICR-CD-1 mice (setting [2]), the “Decrease in Blood Glucose (%)” value was found to be 54.0% and the “Degree of Elevation of Blood Insulin” value is 11.8. Moreover, in the series with Female ICR-CD-1 mice (setting [3]), the “Decrease in Blood Glucose (%)” value was found to be 59.7% and the “Degree of Elevation of Blood Insulin” value is listed as 5.07. The “LD50 (mg/kg)” value in the series on Female CD-1(ICR) Mice (mouse, in vivo) is > 4,000 mg/kg.

With `O=C(COc1ccc2ccccc2c1)N[C@@H](Cc1ccccc1)C(=O)O` [Sample S-12, N-[(2-naphthoxy)acetyl]-L-phenylalanine], in the series on Female ICR-CD-1 mice (setting [2]), the “Decrease in Blood Glucose (%)” value is on record as 50.8% and the “Degree of Elevation of Blood Insulin” value came out at 6.05. Besides, in the series with Female ICR-CD-1 mice (setting [3]), the “Decrease in Blood Glucose (%)” value was 66.8% and the “Degree of Elevation of Blood Insulin” value came to 5.62. Moreover, the “LD50 (mg/kg)” value in the series with Female CD-1(ICR) Mice (mouse, in vivo) is recorded as > 4,000 mg/kg.

For the compound `O=C(COc1ccc(Cl)cc1)N[C@@H](Cc1ccccc1)C(=O)O` [Sample S-13, N-[(4-chlorophenoxy)acetyl]-L-phenylalanine], the “Decrease in Blood Glucose (%)” value in the series with Female ICR-CD-1 mice (setting [5]) worked out at 31.9%; in the series on Female ICR-CD-1 mice (setting [6]), 18.5%. Besides, the figures for the “Degree of Elevation of Blood Insulin” value in the series on Female ICR-CD-1 mice (setting [5]) and in the series on Female ICR-CD-1 mice (setting [6]) were 43.4 and 9.82, respectively. Further, in the series with Female CD-1(ICR) Mice (mouse, in vivo), the “LD50 (mg/kg)” value is recorded as > 3,500 mg/kg.

In the case of `O=C(N[C@@H](Cc1ccccc1)C(=O)O)OCc1ccccc1` [Sample S-15, N-benzyloxycarbonyl-L-phenylalanine], in the series on Female ICR-CD-1 mice (setting [7]), the “Decrease in Blood Glucose (%)” value is 37.5% and the “Degree of Elevation of Blood Insulin” value is 3.43. In the series with Female ICR-CD-1 mice (setting [8]), the “Decrease in Blood Glucose (%)” value is recorded as 60.7% and the “Degree of Elevation of Blood Insulin” value turned out to be 2.36. The “LD50 (mg/kg)” value in the series on Female CD-1(ICR) Mice (setting [4]) is given as > 2,750 mg/kg.

For the compound `COc1ccc(COC(=O)N[C@@H](Cc2ccccc2)C(=O)O)cc1` [Sample S-17, N-(4-methoxybenzyloxycarbonyl)-L-phenylalanine], the “Decrease in Blood Glucose (%)” value is 64.8% in the series with Female ICR-CD-1 mice (setting [7]) and 50.6% in the series on Female ICR-CD-1 mice (setting [8]). Besides, the “Degree of Elevation of Blood Insulin” value is on record as 14.4 with Female ICR-CD-1 mice (setting [7]) and 21.2 in the series with Female ICR-CD-1 mice (setting [8]). In addition, the “LD50” value in the series on Female CD-1(ICR) Mice (setting [4]) is recorded as 750 mg/kg.

In the case of `O=C(N[C@H](Cc1ccccc1)C(=O)O)OCc1ccccc1` [Sample S-18, N-benzyloxycarbonyl-D-phenylalanine], the figures for the “Decrease in Blood Glucose (%)” value with Female ICR-CD-1 mice (setting [2]) and in the series with Female ICR-CD-1 mice (setting [3]) were 52.3% and 67.2%, respectively. In addition, the “Degree of Elevation of Blood Insulin” value in the series with Female ICR-CD-1 mice (setting [2]) is listed as 6.79; in the series with Female ICR-CD-1 mice (setting [3]), 10.6. Also, the “LD50 (mg/kg)” value in the series on Female CD-1(ICR) Mice (setting [4]) is recorded as > 4,000 mg/kg.
